Measurements taken from the supplement of paper PMC10307832.

What was measured:
Assay in all cases: relative viability (nuclei count vs DMSO), 5 days (fraction); higher = more cells survive
[1] = compound: NC1(c2ccc(-c3nc4ccn5c(=O)[nH]nc5c4cc3-c3ccccc3)cc2)CCC1 [MK-2206] + C[C@@H](Oc1cc(-c2cnn(C3CCNCC3)c2)cnc1N)c1c(Cl)ccc(F)c1Cl [Crizotinib] (partner 1 µM)
Outline: (§1)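 The day after seeding in 1536-well plates, lung cancer cell lines were treated by pin tool with a single drug, or with a fixed anchor-drug dose together with five library-drug doses (not always all listed) in √10 steps. After 5 days, a combined fix-and-stain solution (final 0.05% Triton X-100, 1% formaldehyde, 1 ug/ml Hoechst) was added. Nuclei counted on 4× images gave relative viability as treated counts over vehicle counts, reported as the median of duplicate plates.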

[2] = compound: CS(=O)(=O)N1CCN(Cc2cc3nc(-c4cccc5[nH]ncc45)nc(N4CCOCC4)c3s2)CC1 [Pictilisib] + O=C(c1cc(Cc2n[nH]c(=O)c3ccccc23)ccc1F)N1CCN(C(=O)C2CC2)CC1 [Olaparib] (partner 8 µM)
Outline: as §1

[3] = compound: CS(=O)(=O)N1CCN(Cc2cc3nc(-c4cccc5[nH]ncc45)nc(N4CCOCC4)c3s2)CC1 [Pictilisib] + C[C@]1(O)C[C@@H](c2nc(-c3ccc4ccc(-c5ccccc5)nc4c3)c3c(N)nccn32)C1 [Linsitinib] (partner 1 µM)
Outline: as §1

[4] = compound: NC1(c2ccc(-c3nc4ccn5c(=O)[nH]nc5c4cc3-c3ccccc3)cc2)CCC1 [MK-2206] + NC(=O)Nc1cc(-c2cccc(F)c2)sc1C(=O)N[C@H]1CCCNC1 [AZD7762] (partner 0.2 µM)
Outline: as §1

[5] = compound: NC1(c2ccc(-c3nc4ccn5c(=O)[nH]nc5c4cc3-c3ccccc3)cc2)CCC1 [MK-2206] + COc1cc2c(Oc3ccc(NC(=O)C4(C(=O)Nc5ccc(F)cc5)CC4)cc3F)ccnc2cc1OCCCN1CCOCC1 [Foretinib] (partner 0.25 µM)
Outline: as §1

Row | Cell Line | relative viability ([1]; first compound 0.01 µM) | relative viability ([1]; first compound 0.03162 µM) | relative viability ([1]; first compound 0.3162 µM) | relative viability ([1]; first compound 1 µM) | relative viability ([2]; first compound 0.02 µM) | relative viability ([2]; first compound 0.06325 µM) | relative viability ([2]; first compound 0.6325 µM) | relative viability ([2]; first compound 2 µM) | relative viability ([3]; first compound 0.02 µM) | relative viability ([3]; first compound 0.06325 µM) | relative viability ([3]; first compound 0.6325 µM) | relative viability ([3]; first compound 2 µM) | relative viability ([4]; first compound 0.01 µM) | relative viability ([4]; first compound 0.03162 µM) | relative viability ([4]; first compound 0.3162 µM) | relative viability ([4]; first compound 1 µM) | relative viability ([5]; first compound 0.01 µM) | relative viability ([5]; first compound 0.03162 µM) | relative viability ([5]; first compound 0.3162 µM) | relative viability ([5]; first compound 1 µM)
1 | NCI-H441 | 0.798 | 0.639 | 0.612 | 0.643 | 0.653 | 0.606 | 0.493 | 0.346 | 0.58 | 0.581 | 0.414 | 0.325 | 1.27 | 0.941 | 1.25 | 0.869 | 0.923 | 1.03 | 0.59 | 0.822
2 | NCI-H460 | 0.86 | 0.905 | 0.855 | 0.893 | 0.425 | 0.436 | 0.395 | 0.173 | 0.78 | 0.733 | 0.154 | 0.0347 | 0.692 | 0.366 | 0.612 | 0.644 | 0.984 | 1.06 | 1.1 | 1.04
3 | NCI-H596 | 0.978 | 1 | 0.898 | 0.736 | 0.621 | 0.642 | 0.567 | 0.338 | 1.02 | 0.853 | 0.643 | 0.337 | 1.16 | 1.06 | 1.05 | 1.01 | 1.02 | 0.921 | 0.677 | 0.77
4 | NCI-H647 | 1.03 | 1.06 | 1.04 | 0.897 | 0.661 | 0.659 | 0.411 | 0.219 | 1.16 | 1.15 | 1.02 | 0.439 | 0.46 | 0.356 | 0.521 | 0.473 | 1.1 | 1.12 | 1.06 | 1.2
5 | NCI-H650 | 0.725 | 0.72 | 0.563 | 0.805 | 0.372 | 0.37 | 0.44 | 0.348 | 0.979 | 1.03 | 0.809 | 0.633 | 1 | 0.706 | 1.13 | 1 | 0.935 | 1.13 | 1.05 | 1.13
6 | NCI-H727 | 0.809 | 0.903 | 0.666 | 0.568 | 0.796 | 0.801 | 0.72 | 0.548 | 0.267 | 0.318 | 0.228 | 0.258 | 0.563 | 0.485 | 0.58 | 0.575 | 1.12 | 0.889 | 0.838 | 0.942
7 | NCI-H838 | 0.857 | 0.812 | 0.834 | 0.765 | 0.775 | 0.718 | 0.603 | 0.293 | 1.05 | 0.891 | 0.891 | 0.448 | 0.935 | 0.872 | 0.969 | 0.906 | 0.956 | 1.08 | 0.962 | 0.908
8 | NCI-H1355 | 1.07 | 1.03 | 1.08 | 0.914 | 0.718 | 0.727 | 0.651 | 0.413 | 0.759 | 0.678 | 0.744 | 0.402 | 0.664 | 0.557 | 0.681 | 0.6 | 0.94 | 1.02 | 0.952 | 0.952
9 | NCI-H1437 | 0.852 | 0.938 | 0.914 | 0.997 | 0.635 | 0.67 | 0.71 | 0.546 | 0.975 | 1.05 | 0.662 | 0.447 | 1.18 | 1.11 | 1.16 | 1.09 | 1.19 | 1.27 | 1.35 | 1.35
10 | NCI-H1651 | 0.878 | 0.875 | 0.892 | 0.884 | 0.18 | 0.187 | 0.21 | 0.191 | 0.922 | 0.953 | 0.817 | 0.616 | 0.506 | 0.367 | 0.466 | 0.438 | 0.724 | 0.658 | 0.834 | 0.733
11 | NCI-H1666 | 0.965 | 1.12 | 0.789 | 0.892 | 0.751 | 0.762 | 0.813 | 0.756 | 0.744 | 0.696 | 0.608 | 0.431 | 0.808 | 0.858 | 0.962 | 0.806 | 1 | 0.985 | 1.02 | 0.91
12 | NCI-H1703 | 0.809 | 0.658 | 0.302 | 0.511 | 0.471 | 0.378 | 0.214 | 0.122 | 1.19 | 0.634 | 0.347 | 0.137 | 0.14 | 0.105 | 0.112 | 0.112 | 0.368 | 0.309 | 0.377 | 0.333
13 | NCI-H1734 | 0.772 | 0.725 | 0.468 | 0.521 | 0.582 | 0.581 | 0.477 | 0.215 | 0.901 | 0.797 | 0.615 | 0.332 | 0.576 | 0.244 | 0.471 | 0.399 | 1 | 0.994 | 0.682 | 0.64
14 | NCI-H1755 | 0.875 | 0.836 | 0.798 | 0.727 | 0.872 | 0.84 | 0.806 | 0.403 | 1.02 | 0.975 | 0.906 | 0.53 | 0.508 | 0.328 | 0.458 | 0.432 | 0.929 | 0.986 | 0.816 | 0.823
15 | NCI-H1915 | 0.911 | 0.923 | 0.874 | 0.905 | 0.257 | 0.277 | 0.28 | 0.225 | 1.07 | 1.06 | 1.12 | 1.07 | 0.74 | 0.573 | 0.735 | 0.576 | 1.08 | 1.16 | 1.07 | 1.05
16 | NCI-H1944 | 1.16 | 1.16 | 1.02 | 1.07 | 0.395 | 0.381 | 0.368 | 0.232 | 1.09 | 1.38 | 0.786 | 0.643 | 0.539 | 0.254 | 0.472 | 0.5 | 0.889 | 1 | 0.887 | 0.829
17 | NCI-H1975 | 0.96 | 0.866 | 0.855 | 0.894 | 0.764 | 0.818 | 0.523 | 0.248 | 0.781 | 0.821 | 0.418 | 0.249 | 0.745 | 0.748 | 0.595 | 0.582 | 1.08 | 0.96 | 0.91 | 0.801
18 | NCI-H1993 | 0.842 | 0.86 | 0.729 | 0.68 | 0.964 | 0.94 | 0.763 | 0.388 | 0.774 | 0.71 | 0.636 | 0.655 | 0.804 | 0.864 | 0.483 | 0.475 | 0.761 | 0.773 | 0.665 | 0.57
19 | NCI-H2085 | 0.887 | 0.888 | 0.876 | 0.724 | 0.764 | 0.823 | 0.586 | 0.353 | 0.86 | 0.835 | 0.786 | 0.334 | 0.85 | 0.954 | 0.918 | 0.769 | 0.921 | 1.07 | 1 | 0.735
20 | NCI-H2087 | 0.777 | 0.889 | 0.749 | 0.835 | 0.537 | 0.477 | 0.493 | 0.345 | 1.12 | 1.02 | 0.918 | 0.944 | 0.809 | 1.34 | 1.4 | 1.33 | 1.11 | 1.1 | 1.17 | 1.08
21 | NCI-H2126 | 1.01 | 1.02 | 1.01 | 0.979 | 0.911 | 0.894 | 0.713 | 0.496 | 0.692 | 0.692 | 0.609 | 0.5 | 0.971 | 0.96 | 0.94 | 0.996 | 1.14 | 1.17 | 1.18 | 1.13
22 | NCI-H2347 | 0.733 | 0.761 | 0.708 | 0.67 | 0.639 | 0.626 | 0.474 | 0.406 | 1.02 | 1.08 | 1.1 | 0.933 | 0.778 | 0.652 | 0.649 | 0.636 | 0.877 | 0.818 | 1.15 | 0.723
23 | NCI-H2405 | 0.79 | 0.858 | 0.83 | 0.786 | 0.871 | 0.867 | 0.735 | 0.422 | 1.05 | 0.96 | 0.7 | 0.5 | 0.824 | 0.769 | 0.838 | 0.534 | 1.03 | 1.08 | 0.991 | 0.98
24 | NCI-H3122 | 0.261 | 0.278 | 0.218 | 0.263 | 0.603 | 0.659 | 0.595 | 0.329 | 0.988 | 0.963 | 0.681 | 0.354 | 0.936 | 1.04 | 0.979 | 0.91 | 0.998 | 0.896 | 1.05 | 0.944
25 | PC-3 [JPC-3] | 0.973 | 0.98 | 0.946 | 1.03 | 1.24 | 1.31 | 1.21 | 0.754 | 0.985 | 0.945 | 0.97 | 0.893 | 0.881 | 0.849 | 0.774 | 0.334 | 1.05 | 1.12 | 0.99 | 1.04
26 | PC-14 | 0.826 | 0.928 | 0.914 | 0.879 | 0.385 | 0.39 | 0.442 | 0.341 | 0.934 | 0.937 | 0.91 | 0.588 | 0.326 | 0.243 | 0.329 | 0.366 | 0.903 | 0.993 | 0.985 | 0.994
27 | RERF-LC-KJ | 0.808 | 0.806 | 0.871 | 0.842 | 0.925 | 0.834 | 0.784 | 0.578 | 0.823 | 0.881 | 0.818 | 0.618 | 0.915 | 1.15 | 0.84 | 1.01 | 0.868 | 0.861 | 0.82 | 0.77
